Results from PMC8880564, “Design, Synthesis, and Biological Evaluation of a Novel VEGFR-2 Inhibitor Based on a 1,2,5-Oxadiazole-2-Oxide Scaffold with MAPK Signaling Pathway Inhibition” (Pharmaceuticals, 2022).

Experiments:
Test in all cases: NCI-60 one-dose SRB screening
Format in all cases: cell-based
OVCAR-5 = conditions: Homo sapiens, OVCAR-5, Ovarian Cancer, 10 µM one dose, 48 h, read-out: growth percentage
Protocol: (§1) The structures of the synthesized compounds 6a–h, 12a–c, 11, 13a–c, and 14a–c were submitted to the National Cancer Institute’s Developmental Therapeutics Program (NCI-DTP), and all of them were selected for preliminary in vitro anticancer activity screening against NCI-59 human cancer cell lines at a concentration of 10 µM, using the sulforhodamine B (SRB) assay to determine the growth percentage and cell viability.
(§2) The in vitro NCI-60 cell line screening assay was conducted at the National Cancer Institute (NCI), Bethesda, USA against 59 cancer cell lines representing 9 types of cancers, as reported earlier. Briefly, the human cancer cell lines were grown in RPMI 1640 medium containing 5% fetal bovine serum and 2 mM L-glutamine and inoculated into 96-well microtiter plates in 100 μL (5000 to 40,000 cells/well). Then, the plates were incubated at 37 °C, 5% CO2, 95% air, and 100% relative humidity for 24 h. After that, two plates of each cell line were fixed in situ with TCA, to represent cell population at time zero (Tz). The tested compounds were dissolved in DMSO at 400-fold and added so that the final concentration became 10 μM. The plates were then incubated for an additional 48 h followed by the addition of cold TCA to terminate the assay in case of adherent cells. Then, the cells were fixed in situ by cold 50% (w/v) TCA (50 μL; final concentration, 10% TCA) and incubated for 1 h at 4 °C. After discarding the supernatant, the plates were washed 5 times with tap water and air dried. Sulforhodamine B (SRB) solution (100 μL) at 0.4% (w/v) in 1% HOAc was added to each well, and plates were incubated for 10 min. at rt. Then, washing with 1% acetic acid was conducted 5 times to remove the unbound dye followed by air drying. After that, 10 mM trizma base was added to solubilize the bound stain, and the absorbance was read on an automated plate reader at a wavelength of 515 nm. On the other hand, the methodology for suspension cells was the same except that 50 μL of 80% TCA (final concentration, 16% TCA) was gently added to terminate the assay by fixing settled cells at the bottom of the wells. Percentage growth inhibition (GI%) was calculated as follows:
(§3) Growth percentage=Ti (test growth in the presence of compound at 10 µM )−Tz (time zero)/C (control growth)−Tz (time zero)×100 for Ti ≥ Tz;
(§4) Growth percentage=Ti (test growth in the presence of compound at 10 µM )−Tz (time zero)/Tz (time zero)×100 for Ti < Tz.
(§5) where values of 100, 40, 0, −40, and −100 mean no GI, 60% GI, no net G, 40% lethality, and all cells are dead, respectively.

A549/ATCC = conditions: Homo sapiens, Non-Small Cell Lung Cancer, 10 µM one dose, 48 h, read-out: growth percentage
Protocol: as §1, §2, §3, §4, §5

MDA-MB-231/ATCC = conditions: Homo sapiens, Breast Cancer, 10 µM one dose, 48 h, read-out: growth percentage
Protocol: as §1, §2, §3, §4, §5

K-562 = conditions: Homo sapiens, K562, K-562, Leukemia, 10 µM one dose, 48 h, read-out: growth percentage
Protocol: as §1, §2, §3, §4, §5

HS 578T = conditions: Homo sapiens, Breast Cancer, 10 µM one dose, 48 h, read-out: growth percentage
Protocol: as §1, §2, §3, §4, §5

HCT-116 = conditions: Homo sapiens, HCT-116, Colon Cancer, 10 µM one dose, 48 h, read-out: growth percentage
Protocol: as §1, §2, §3, §4, §5

UO-31 = conditions: Homo sapiens, UO-31, Renal Cancer, 10 µM one dose, 48 h, read-out: growth percentage
Protocol: as §1, §2, §3, §4, §5

NCI-H23 = conditions: Homo sapiens, NCI-H23, Non-Small Cell Lung Cancer, 10 µM one dose, 48 h, read-out: growth percentage
Protocol: as §1, §2, §3, §4, §5

SF-539 = conditions: Homo sapiens, SF-539, CNS Cancer, 10 µM one dose, 48 h, read-out: growth percentage
Protocol: as §1, §2, §3, §4, §5

SR = conditions: Homo sapiens, Leukemia, 10 µM one dose, 48 h, read-out: growth percentage
Protocol: as §1, §2, §3, §4, §5

RXF 393 = conditions: Homo sapiens, RXF 393, Renal Cancer, 10 µM one dose, 48 h, read-out: growth percentage
Protocol: as §1, §2, §3, §4, §5

MALME-3M = conditions: Homo sapiens, Melanoma, 10 µM one dose, 48 h, read-out: growth percentage
Protocol: as §1, §2, §3, §4, §5

T-47D = conditions: Homo sapiens, T47D, Breast Cancer, 10 µM one dose, 48 h, read-out: growth percentage
Protocol: as §1, §2, §3, §4, §5

NCI-H226 = conditions: Homo sapiens, NCI-H226, Non-Small Cell Lung Cancer, 10 µM one dose, 48 h, read-out: growth percentage
Protocol: as §1, §2, §3, §4, §5

TK-10 = conditions: Homo sapiens, TK-10, Renal Cancer, 10 µM one dose, 48 h, read-out: growth percentage
Protocol: as §1, §2, §3, §4, §5

A498 = conditions: Homo sapiens, A498, Renal Cancer, 10 µM one dose, 48 h, read-out: growth percentage
Protocol: as §1, §2, §3, §4, §5

NCI-H460 = conditions: Homo sapiens, NCI-H460, Non-Small Cell Lung Cancer, 10 µM one dose, 48 h, read-out: growth percentage
Protocol: as §1, §2, §3, §4, §5

MCF7 = conditions: Homo sapiens, MCF7, Breast Cancer, 10 µM one dose, 48 h, read-out: growth percentage
Protocol: as §1, §2, §3, §4, §5

786-0 = conditions: Homo sapiens, 786-0, Renal Cancer, 10 µM one dose, 48 h, read-out: growth percentage
Protocol: as §1, §2, §3, §4, §5

OVCAR-8 = conditions: Homo sapiens, OVCAR-8, Ovarian Cancer, 10 µM one dose, 48 h, read-out: growth percentage
Protocol: as §1, §2, §3, §4, §5

IGROV1 = conditions: Homo sapiens, IGROV-1, IGROV1, Ovarian Cancer, 10 µM one dose, 48 h, read-out: growth percentage
Protocol: as §1, §2, §3, §4, §5

HT29 = conditions: Homo sapiens, HT-29, HT29, Colon Cancer, 10 µM one dose, 48 h, read-out: growth percentage
Protocol: as §1, §2, §3, §4, §5

SMILES	activity at 10 µM (OVCAR-5)	activity at 10 µM (A549/ATCC)	activity at 10 µM (MDA-MB-231/ATCC)	activity at 10 µM (K-562)	activity at 10 µM (HS 578T)	activity at 10 µM (HCT-116)	activity at 10 µM (UO-31)	activity at 10 µM (NCI-H23)	activity at 10 µM (SF-539)	activity at 10 µM (SR)	activity at 10 µM (RXF 393)	activity at 10 µM (MALME-3M)	activity at 10 µM (T-47D)	activity at 10 µM (NCI-H226)	activity at 10 µM (TK-10)	activity at 10 µM (A498)	activity at 10 µM (NCI-H460)	activity at 10 µM (MCF7)	activity at 10 µM (786-0)	activity at 10 µM (OVCAR-8)	further results
Cc1nc(Nc2ccc(OCc3c(-c4ccccc4)no[n+]3[O-])cc2)c2c(C)nn(-c3ccc(Br)cc3)c2n1 [6h, 3-((4-((1-(4-bromophenyl)-3,6-dimethyl-1H-pyrazolo[3,4-d]pyrimidin-4-yl)amino)phenoxy)methyl)-4-phenyl-1,2,5-oxadiazole 2-oxide]	102%	96.4%	100%	83.6%	94.8%	71.5%	74%	96.6%	96.1%	72%	136%	96%	81.4%	109%	114%	110%	100%	87.4%	107%	102%	activity at 10 µM (IGROV1): 99%; activity at 10 µM (HT29): 90%
Cc1nc(Nc2ccc(OCc3c(-c4ccccc4)no[n+]3[O-])cc2)c2c(C)nn(-c3ccccc3)c2n1 [6d, 3-((4-((3,6-dimethyl-1-phenyl-1H-pyrazolo[3,4-d]pyrimidin-4-yl)amino)phenoxy)methyl)-4-phenyl-1,2,5-oxadiazole 2-oxide]	101%	103%	101%	99.3%	102%	104%	88.5%	102%	99.8%	102%	119%	101%	104%	101%	126%	112%	112%	95.4%	107%	107%	activity at 10 µM (IGROV1): 106%; activity at 10 µM (HT29): 119%
Cc1nc(Nc2ccc(OCc3c(-c4ccccc4)no[n+]3[O-])cc2)c2cnn(-c3ccc(Br)cc3)c2n1 [6f, 3-((4-((1-(4-bromophenyl)-6-methyl-1H-pyrazolo[3,4-d]pyrimidin-4-yl)amino)phenoxy)methyl)-4-phenyl-1,2,5-oxadiazole 2-oxide]	99.3%	94.9%	106%	91.1%	93.6%	97.5%	82.7%	95.8%	94.2%	87.1%	121%	106%	97.2%	108%	97.7%	87.2%	103%	85.3%	82.2%	106%	activity at 10 µM (IGROV1): 101%; activity at 10 µM (HT29): 97.3%
O=c1[nH]c(CNc2ccc(NCc3c(-c4ccccc4)no[n+]3[O-])cc2)nc2c1cnn2-c1ccccc1 [14a, 3-(((4-(((4-oxo-1-phenyl-4,5-dihydro-1H-pyrazolo[3,4-d]pyrimidin-6-yl)methyl)amino)phenyl)amino)methyl)-4-phenyl-1,2,5-oxadiazole 2-oxide]	64.3%	63.8%	72.5%	49.8%	85.8%	49.6%	55.9%	63.4%	92.6%	45.7%	98.4%	63.6%	42.5%	77.2%	102%	86%	64.2%	50%	102%	109%	activity at 10 µM (IGROV1): 52.5%; activity at 10 µM (HT29): 92%
Cc1nn(-c2ccccc2)c2ncnc(Nc3ccc(OCc4c(-c5ccccc5)no[n+]4[O-])cc3)c12 [6c, 3-((4-((3-methyl-1-phenyl-1H-pyrazolo[3,4-d]pyrimidin-4-yl)amino)phenoxy)methyl)-4-phenyl-1,2,5-oxadiazole 2-oxide]	104%	99.3%	95.7%	90.2%	97.5%	81.8%	77%	98.1%	96.2%	73.9%	112%	98.2%	72%	97.3%	110%	86.3%	109%	83%	107%	101%	activity at 10 µM (IGROV1): 97.1%; activity at 10 µM (HT29): 93.2%
Cc1nn(-c2ccccc2)c2nc(CNc3ccc(NCc4c(-c5ccccc5)no[n+]4[O-])cc3)[nH]c(=O)c12 [14b, 3-(((4-(((3-methyl-4-oxo-1-phenyl-4,5-dihydro-1H-pyrazolo[3,4-d]pyrimidin-6-yl)methyl)amino)phenyl)amino)methyl)-4-phenyl-1,2,5-oxadiazole 2-oxide]	95.4%	74.3%	82.7%	75.8%	104%	79%	72.4%	86.6%	99.4%	73%	108%	74.1%	75.5%	101%	137%	97.9%	90%	77%	125%	117%	activity at 10 µM (IGROV1): 64.4%; activity at 10 µM (HT29): 107%
